The text below walks through data of publication PMC6470795 (Molecules, 2019).

Data set [1] deals with LO2 (human normal liver cells). In words: MTT assay, LO2 normal cells. Format: cell-based. Particulars: LO2 normal cells, MTT, 48 h, read-out: IC50 LO2.
Description: (§3) The cell lines, 97H (human liver cancer cell), Pc9 (human non-small cell lung cancer), HELA (human epithelial cervical cancer cell line), SJSA1 (human osteosarcoma cells), LO2 (human normal liver cells), and HLF (human embryonic lung fibroblast), used in this study were purchased from the Guangzhou ginny ou Biotechnology Co. Ltd. (Guangzhou, China). Cell lines were cultivated in Dulbecco’s Modified Eagle Medium (DMEM) containing 10% (v/v) heat-inactivated fetal bovine serum (FBS), 100 units/mL penicillin, and 100 μg/mL streptomycin.
(§4) For the cytotoxicity assay, the cells grown in the logarithmic phase were seeded into 96-well plates (5 × 10^3 cells/well) for 24 h, and then exposed to different concentrations of the test compounds for 48 h. After the attached cells had been incubated with 5 mg/mL MTT (Sigma, St. Louis, MO, USA) for another 4 h, the suspension was discarded and subsequently the dark blue crystals (formazan) were solubilized in dimethyl sulfoxide (DMSO). Then, the absorbance was measured at 570 nm using a multifunction microplate reader (Molecular Devices, Flex Station 3) (Thermo Fisher Scientific, San Jose, CA, USA), and each experiment was performed at least in triplicate.
Data set [2] concerns Pc9 (human non-small cell lung cancer cells). In words: MTT antiproliferative assay, Pc9 cells. Format: cell-based. The conditions noted are these: PC-9, Pc9 cells, MTT, 48 h, read-out: IC50 Pc9.
Description: as §3, §4
Data set [3] concerns SJSA1 (human osteosarcoma cells). In words: MTT antiproliferative assay, SJSA1 cells. The data set is classed as cell-based. The conditions noted are these: SJSA-1, SJSA1 cells, MTT, 48 h, read-out: IC50 SJSA1.
Description: as §3, §4
The subject of data set [4] is HLF (human embryonic lung fibroblast cells). In words: MTT assay, HLF normal cells. The data set is classed as cell-based. Particulars: HLF normal cells, MTT, 48 h, read-out: IC50 HLF.
Description: as §3, §4
The test system of data set [5] is hepatic carcinoma 97H cells. As to the kind of experiment: Anti-cell-migration study. The data set is classed as cell-based, human. The conditions noted are these: 36 h. As to the method: 97H cells were plated in a 6-well culture dish at 5 × 10^4 cells/dish and grown for 24 h, and the non-migrated cells were scraped off the upper surface of the membrane with a 10 μL pipette. The medium was then replaced with 10% serum DMEM medium and treated with compound 31e at the indicated concentrations for another 36 h. After washing with phosphate buffer solution (PBS), the cell images were immediately detected by a Zeiss LSM 570 laser scanning confocal microscope (Carl Zeiss, Jena, Germany).
Figure 4 Effect of 31e on the migration of hepatic carcinoma 97H cells. Hepatic carcinoma 97H cells (50 × 10^4 cells) suspended in free serum Dulbecco’s Modified Eagle Medium (DMEM) containing 31e for 36 h were photographed under a phase contrast microscopy (magnification: 4 × objective). All results were expressed as the mean ± SD of at least three independent experiments.

The subject of data set [6] is Hela (human epithelial cervical cancer cells). As to the kind of experiment: MTT antiproliferative assay, Hela cells. Format: cell-based. The conditions noted are these: Hela cells, MTT, 48 h, read-out: IC50 Hela.
Description: as §3, §4
The next data set has as its target T1, c-Met enzyme (Homo sapiens, UniProt P08581).
T1 construct: purchased Invitrogen
As to the kind of experiment: Kinase inhibition assay. Format: biochemical.

Data set [7] concerns hepatic carcinoma 97H cells. In words: MTT antiproliferative assay, 97H cells. The conditions noted are these: Homo sapiens, 97H cells, MTT, 48 h. Format: cell-based, human.
Description: as §3, §4
Data set [8] has as its system hepatic carcinoma 97H cells. As to the kind of experiment: Cell cycle analysis by flow cytometry (PI staining). The data set is classed as cell-based, human. On the procedure: 97H cells were seeded in 6-well plates (3 × 10^5 cells/well) and incubated in the presence or absence of compound 31e at the indicated concentrations for 24 h. Then, cells were harvested by centrifugation and fixed in 70% ice-cold ethanol overnight. The ethanol was removed the next day, and then the cells were resuspended in the ice-cold PBS and treated with RNAse A (Keygen Biotech, Nanjing, China) at 37 °C for 30 min, followed by incubation with the DNA staining solution propidium iodide (PI) (Keygen Biotech, Nanjing, China) at 4 °C for 30 min. About 10,000 events were detected by flow cytometry (Epics XL, Beckman Coulter, Fullerton, CA, USA) at 488 nm. The data regarding the number of cells in different phases of the cell cycle were analyzed by EXPO32 ADC analysis software (Beckman Coulter, Fullerton, CA, USA).
Figure 3 Effect of 31e on cell cycle progression. (A) 97H cells (3 × 10^5 cells/sample) were treated with increasing concentrations of 31e for 24 h, cells were harvested, fixed with 70% ethanol, and stained with propidium iodide (PI). The cellular DNA content was then determined by flow cytometry analysis. (B) Quantitative analysis of the percentage of cells in each cell cycle phase was analyzed by EXPO32 ADC analysis software.

Another data set relates to Akt phosphorylation. In words: Western blot, phosphorylation of Akt in 97H cells. Format: cell-based, human. As to the method: (§1) 97H cells seeded in 60-mm dishes at a density of 5 × 10^5 cells/well were incubated with or without compound 31e at the indicated concentrations for 4 h. After incubation, the cells were washed twice with ice-cold PBS, and then lysed in RIPA lysis buffer (Radio Immunoprecipitation Assay) containing 150 mM NaCl, 50 mM Tris (pH 7.4), 1% (w/v) sodium deoxycholate, 1% (v/v) Triton X-100, 0.1% (w/v) SDS, and 1 mM EDTA (ethylenediaminetetraacetic acid) (Beyotime, Shanghai, China). The lysates were incubated at 0 °C for 30 min, and vortexed every 10 min intermittently, then the total proteins were harvested by centrifuging at 12,500 g for 15 min. The protein concentrations were determined by a BCA (bicinchoninic acid) Protein Assay Kit (Thermo Fisher Scientific, Rockford, IL, USA), and then the protein extracts were reconstituted in loading buffer containing 62 mM Tris-HCl, 2% SDS (sodium dodecyl sulfate), 10% glycerol, and 5% β-mercaptoethanol (Beyotime, Shanghai, China), and boiled at 100 °C for 3 min. An equal amount of the proteins (40 μg) was separated by 8%–12% sodium dodecyl sulphate-polyacrylamide gel electrophoresis (SDS-PAGE) and were transferred to nitrocellulose membranes (Amersham Biosciences, Little Chalfont, Buckinghamshire, UK). After blocking with 5% non-fat dried milk in TBS containing 1% Tween-20 for 90 min at room temperature, the membranes were incubated overnight with specific primary antibodies (Abcam, London, England) at 4 °C. After three washes in TBST, the membranes were incubated with the appropriate HRP-conjugated (Horseradish Peroxidase-conjugated) secondary antibodies at room temperature for 2 h. The blots were developed with enhanced chemiluminescence (Pierce, Rockford, IL, USA) and detected by an LAS4000 imager (GE Healthcare, Waukesha, WI, USA).
(§2) Figure 5 Compound 31e inhibits c-Met phosphorylation and downstream signaling in cancer cell lines. Cells treated with compound 31e for 1 h or 2 h were then lysed and subjected to Western blot analysis.

A further data set has as its system c-Met phosphorylation. As to the kind of experiment: Western blot, phosphorylation of c-Met in 97H cells. Format: cell-based, human. As to the method:
as §1, §2

[9] abbreviates: same concentration, 2 h versus 1 h.

Where two headings read alike, the source gives them in different places.

T1 sequence (P08581 25-1390): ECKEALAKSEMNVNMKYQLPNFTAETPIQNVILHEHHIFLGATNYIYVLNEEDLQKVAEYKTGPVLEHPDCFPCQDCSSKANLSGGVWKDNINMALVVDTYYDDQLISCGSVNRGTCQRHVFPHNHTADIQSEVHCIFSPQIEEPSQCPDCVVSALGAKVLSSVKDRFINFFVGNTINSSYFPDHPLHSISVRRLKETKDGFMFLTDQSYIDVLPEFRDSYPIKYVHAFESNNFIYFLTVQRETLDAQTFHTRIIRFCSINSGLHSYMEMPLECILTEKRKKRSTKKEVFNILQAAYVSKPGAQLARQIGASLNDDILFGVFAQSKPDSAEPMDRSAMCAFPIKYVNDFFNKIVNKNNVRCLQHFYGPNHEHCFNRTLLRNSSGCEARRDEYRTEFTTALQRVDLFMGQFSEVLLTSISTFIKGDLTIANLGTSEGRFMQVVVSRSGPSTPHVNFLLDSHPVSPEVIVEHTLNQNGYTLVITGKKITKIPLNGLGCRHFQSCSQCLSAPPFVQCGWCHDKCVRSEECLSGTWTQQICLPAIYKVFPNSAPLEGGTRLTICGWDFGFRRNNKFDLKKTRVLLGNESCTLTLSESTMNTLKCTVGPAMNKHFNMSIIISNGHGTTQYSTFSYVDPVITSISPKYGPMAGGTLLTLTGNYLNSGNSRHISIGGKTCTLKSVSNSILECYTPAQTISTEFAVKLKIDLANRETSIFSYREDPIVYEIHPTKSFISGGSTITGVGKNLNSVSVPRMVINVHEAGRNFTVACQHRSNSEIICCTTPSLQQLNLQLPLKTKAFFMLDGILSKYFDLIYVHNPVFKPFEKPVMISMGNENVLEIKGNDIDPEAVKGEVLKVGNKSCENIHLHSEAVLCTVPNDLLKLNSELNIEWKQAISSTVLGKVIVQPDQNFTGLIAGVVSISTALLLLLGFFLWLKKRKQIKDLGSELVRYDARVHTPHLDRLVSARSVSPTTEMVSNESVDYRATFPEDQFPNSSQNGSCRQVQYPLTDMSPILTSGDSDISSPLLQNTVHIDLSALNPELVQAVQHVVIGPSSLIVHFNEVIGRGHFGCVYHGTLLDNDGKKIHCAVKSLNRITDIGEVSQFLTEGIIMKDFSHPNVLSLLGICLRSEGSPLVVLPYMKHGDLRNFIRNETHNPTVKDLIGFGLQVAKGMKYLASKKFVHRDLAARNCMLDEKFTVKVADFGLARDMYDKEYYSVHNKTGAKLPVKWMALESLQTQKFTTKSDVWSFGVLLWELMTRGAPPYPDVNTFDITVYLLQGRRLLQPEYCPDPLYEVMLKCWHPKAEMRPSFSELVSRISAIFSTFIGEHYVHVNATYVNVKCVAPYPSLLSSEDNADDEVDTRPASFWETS
Protocol for c-Met enzyme: The c-Met enzymes and the Z’-LYTE Kinase Kit were purchased from Invitrogen. The tested compounds were used in concentrations of 0.001 to 10 mM. Briefly, 1 μL of an inhibitor or 5% DMSO, 2 μL of enzyme, and 2 μL of substrate/ATP mix were added to a 384-well low volume plate L and incubated at room temperature for 60 min. Then, 5 μL of ADP-Glo™ Reagent was added, and the mixture was incubated at room temperature for 40 min. Finally, 10 μL of Kinase Detection Reagent was added, and the mixture was incubated at room temperature for 30 min. The plate was measured on a multifunction microplate reader (Molecular Devices, Flex Station 3), and the luminescence was recorded (integration time 0.5–1 s). Curve fitting and data presentations were performed using Graph Pad Prism version 5.0 (GraphPad Inc., La Jolla, CA, USA). Every experiment was repeated at least three times.

Regarding `CC(c1cccc(-c2ncc(OCC3CCN(C)CC3)cn2)c1)n1cc(-c2cccc(C#N)c2)cnc1=O` (stereo not drawn) [Compound 31e, 5-(3-cyanophenyl)-1-(1-(3-(5-((1-methylpiperidin-4-yl)methoxy)pyrimidin-2-yl)phenyl)ethyl)pyrimidin-2(1H)-one], the melting point was 98.2 to 99.9 °C. Besides, in data set [1], the IC50 is > 50 µM. Besides, the IC50 in data set [2] amounted to 42.9 ± 0.13 µM. In data set [3], the IC50 is > 50 µM. In addition, the IC50 in data set [4] was > 50 µM. Moreover, the inhibition of migration result in data set [5] (10 nM) is “moderate inhibition of migration”. Besides, in data set [5] (50 nM), the inhibition of migration result is “significantly suppressed”. The inhibition of migration entry in data set [5] (100 nM) is “completely suppressed”. The IC50 in data set [6] was > 50 µM. Half-maximal inhibition on c-Met enzyme (IC50) required 0.032 ± 0.06 µM. For the same compound, the concentration for half-maximal inhibition (IC50) in [7] (read-out: IC50 of Against 97H cells) was 0.026 µM. Besides, in [7] (read-out: IC50 value, 97H cells), the IC50 came to 0.026 µM. The “population of cells in the G1 phase” value in data set [8] (10 nM, 24 h (vehicle DMSO 70.42%)) is given as 83.84%. Also, in data set [8] (100 nM, 24 h), the “population of cells in the G1 phase” value was 90.88% and the “population of cells in the G2/M phase” value stood at 5.78%. The “phosphorylation of Akt” value with Akt phosphorylation (100 nM, 1 h) is “completely inhibited”. In the data set with Akt phosphorylation (10 or 50 nM, 1 h), the “phosphorylation level of Akt” value was “suppressed in a dose-dependent manner”. Moreover, the “inhibition of Akt phosphorylation” value with Akt phosphorylation (setting [9]) is “more obvious”. Besides, the “phosphorylation of c-Met” value in the data set with c-Met phosphorylation (100 nM, 1 h) was “completely inhibited”. Moreover, the “phosphorylation level of c-Met” value in the data set with c-Met phosphorylation (10 or 50 nM, 1 h) was “suppressed in a dose-dependent manner”. In addition, the “inhibition of c-Met phosphorylation” value with c-Met phosphorylation (setting [9]) is “more obvious”.
